# Experimental data published in publication PMC5218480 (PLoS ONE, 2017).
# System: MV-4-11 cells
# Assay: Gene expression microarray analysis (Affymetrix PrimeView) and GSEA
# Format: cell-based, human
# Design: RFU PODN (11730768_x_at) / Fold change /veh PODN (11730768_x_at) / RFU LINC00158 (11744669_a_at) / Fold change /veh LINC00158 (11744669_a_at) / RFU DUSP10 (11751237_a_at) / Fold change /veh DUSP10 (11751237_a_at) / RFU ID3 (11757404_x_at) / Fold change /veh ID3 (11757404_x_at) / RFU PLEKHG5 (11737974_s_at) / Fold change /veh PLEKHG5 (11737974_s_at) / RFU LRRC4B (11730491_at) / Fold change /veh LRRC4B (11730491_at) / RFU GIMAP4 (11747438_a_at) / Fold change /veh GIMAP4 (11747438_a_at) / RFU KRT8 (11758183_x_at) / Fold change /veh KRT8 (11758183_x_at) / RFU CNN1 (11734310_a_at) / Fold change /veh CNN1 (11734310_a_at) / RFU VPS37D (11726825_at) / Fold change /veh VPS37D (11726825_at) / RFU C10orf10 (11716522_x_at) / Fold change /veh C10orf10 (11716522_x_at) / RFU KIR2DL2 /// KIR2DL4 /// KIR2DL5A /// KIR2DL5B /// KIR2DS1 /// KIR2DS2 /// KIR2DS3 /// KIR2DS4 /// KIR3DL3 /// KIR3DL3 /// KIR3DS1 (11738374_at) / Fold change /veh KIR2DL2 /// KIR2DL4 /// KIR2DL5A /// KIR2DL5B /// KIR2DS1 /// KIR2DS2 /// KIR2DS3 /// KIR2DS4 /// KIR3DL3 /// KIR3DL3 /// KIR3DS1 (11738374_at) / RFU C1QL1 (11718748_at) / Fold change /veh C1QL1 (11718748_at) / RFU TMPRSS4 (11747572_a_at) / Fold change /veh TMPRSS4 (11747572_a_at) / RFU HAMP (11756126_x_at) / Fold change /veh HAMP (11756126_x_at) / RFU RNFT2 (11725882_a_at) / Fold change /veh RNFT2 (11725882_a_at) / RFU NR4A2 (11747474_a_at) / Fold change /veh NR4A2 (11747474_a_at) / RFU ABCC12 (11746883_a_at) / Fold change /veh ABCC12 (11746883_a_at) / RFU TMEM136 (11760407_x_at) / Fold change /veh TMEM136 (11760407_x_at) / RFU CLDN22 /// WWC2 (11732394_at) / Fold change /veh CLDN22 /// WWC2 (11732394_at) / RFU HLA-DPB1 (11760878_x_at) / Fold change /veh HLA-DPB1 (11760878_x_at) / RFU SPINT1 (11716480_a_at) / Fold change /veh SPINT1 (11716480_a_at) / RFU GAP43 (11754022_s_at) / Fold change /veh GAP43 (11754022_s_at) / RFU A4GNT (11735810_at) / Fold change /veh A4GNT (11735810_at) / RFU PRB3 (11715151_x_at) / Fold change /veh PRB3 (11715151_x_at) / RFU TUBB4B (11761932_at) / Fold change /veh TUBB4B (11761932_at) / RFU CAPN14 (11732068_a_at) / Fold change /veh CAPN14 (11732068_a_at) / RFU TMCC2 (11721928_a_at) / Fold change /veh TMCC2 (11721928_a_at) / RFU IRGQ (11745062_a_at) / Fold change /veh IRGQ (11745062_a_at) / RFU FAM174B (11720279_a_at) / Fold change /veh FAM174B (11720279_a_at) / RFU TMPRSS4 (11748680_a_at) / Fold change /veh TMPRSS4 (11748680_a_at) / RFU FAM212B (11763350_a_at) / Fold change /veh FAM212B (11763350_a_at) / RFU PLEKHG5 (11743358_a_at) / Fold change /veh PLEKHG5 (11743358_a_at) / RFU ZSCAN30 (11745921_a_at) / Fold change /veh ZSCAN30 (11745921_a_at) / RFU CMKLR1 (11741424_a_at) / Fold change /veh CMKLR1 (11741424_a_at) / RFU LOC101060620 /// MAPK8IP1 (11723275_at) / Fold change /veh LOC101060620 /// MAPK8IP1 (11723275_at) / RFU SPTSSB (11747773_x_at) / Fold change /veh SPTSSB (11747773_x_at) / RFU PRSS12 (11739890_at) / Fold change /veh PRSS12 (11739890_at) / RFU BIN1 (11741810_x_at) / Fold change /veh BIN1 (11741810_x_at) / RFU WNT11 (11732464_a_at) / Fold change /veh WNT11 (11732464_a_at) / RFU C10orf10 (11716521_a_at) / Fold change /veh C10orf10 (11716521_a_at) / RFU C5orf56 (11738089_at) / Fold change /veh C5orf56 (11738089_at) / RFU CYB561 (11721691_x_at) / Fold change /veh CYB561 (11721691_x_at) / RFU ANKRD19P (11752326_a_at) / Fold change /veh ANKRD19P (11752326_a_at) / RFU OR2T12 /// OR2T33 /// OR2T8 (11738714_s_at) / Fold change /veh OR2T12 /// OR2T33 /// OR2T8 (11738714_s_at) / RFU VCAN (11748164_a_at) / Fold change /veh VCAN (11748164_a_at) / RFU JSRP1 (11732532_at) / Fold change /veh JSRP1 (11732532_at) / RFU KRTAP10-11 (11738290_x_at) / Fold change /veh KRTAP10-11 (11738290_x_at) / RFU MYO3A (11730013_a_at) / Fold change /veh MYO3A (11730013_a_at) / RFU EBF3 (11725865_a_at) / Fold change /veh EBF3 (11725865_a_at) / RFU CAMK2N1 (11719241_x_at) / Fold change /veh CAMK2N1 (11719241_x_at) / RFU C5orf56 (11738088_a_at) / Fold change /veh C5orf56 (11738088_a_at) / RFU OLFML3 (11715873_a_at) / Fold change /veh OLFML3 (11715873_a_at) / RFU LOC100653217 /// NTM (11731650_a_at) / Fold change /veh LOC100653217 /// NTM (11731650_a_at) / RFU MAPK11 (11762145_a_at) / Fold change /veh MAPK11 (11762145_a_at) / RFU FIZ1 (11724087_x_at) / Fold change /veh FIZ1 (11724087_x_at) / RFU OASL (11726364_x_at) / Fold change /veh OASL (11726364_x_at) / RFU SOX15 (11748057_x_at) / Fold change /veh SOX15 (11748057_x_at) / RFU CD79A (11719716_a_at) / Fold change /veh CD79A (11719716_a_at) / RFU HIST1H1D (11736915_at) / Fold change /veh HIST1H1D (11736915_at) / RFU CASKIN2 (11723855_a_at) / Fold change /veh CASKIN2 (11723855_a_at) / RFU LOC730098 (11760151_x_at) / Fold change /veh LOC730098 (11760151_x_at) / RFU OR4N2 (11742367_at) / Fold change /veh OR4N2 (11742367_at) / RFU PRRT2 (11749266_a_at) / Fold change /veh PRRT2 (11749266_a_at) / RFU SNX32 (11753110_a_at) / Fold change /veh SNX32 (11753110_a_at) / RFU CDHR5 (11726645_a_at) / Fold change /veh CDHR5 (11726645_a_at) / RFU RCAN1 (11760418_a_at) / Fold change /veh RCAN1 (11760418_a_at) / RFU FAM167A (11723789_a_at) / Fold change /veh FAM167A (11723789_a_at) / RFU FAM26E (11764081_at) / Fold change /veh FAM26E (11764081_at) / RFU ISYNA1 (11749810_s_at) / Fold change /veh ISYNA1 (11749810_s_at) / RFU ACY1 (11761880_at) / Fold change /veh ACY1 (11761880_at) / RFU 11764098_at / Fold change /veh 11764098_at / RFU SAMD14 (11745864_x_at) / Fold change /veh SAMD14 (11745864_x_at) / RFU NPB (11741838_a_at) / Fold change /veh NPB (11741838_a_at) / RFU TMPRSS6 (11731388_a_at) / Fold change /veh TMPRSS6 (11731388_a_at) / RFU KRTAP10-2 (11738614_at) / Fold change /veh KRTAP10-2 (11738614_at) / RFU ARHGAP8 /// PRR5-ARHGAP8 (11727945_x_at) / Fold change /veh ARHGAP8 /// PRR5-ARHGAP8 (11727945_x_at) / RFU KRTAP5-7 /// NADSYN1 (11734609_at) / Fold change /veh KRTAP5-7 /// NADSYN1 (11734609_at) / RFU RASL12 (11751679_a_at) / Fold change /veh RASL12 (11751679_a_at) / RFU CDKN2B (11736163_a_at) / Fold change /veh CDKN2B (11736163_a_at) / RFU PRF1 (11729649_at) / Fold change /veh PRF1 (11729649_at) / RFU, ZNF638 /// ZNF638-IT1 / Fold change vs veh, ZNF638 /// ZNF638-IT1 / RFU, PANK3 / Fold change vs veh, PANK3 / RFU, SH3YL1 / Fold change vs veh, SH3YL1 / RFU, ZEB2 / Fold change vs veh, ZEB2 / RFU, NRIP1 / Fold change vs veh, NRIP1 / RFU, PTTG1IP / Fold change vs veh, PTTG1IP / RFU, CAPN2 / Fold change vs veh, CAPN2 / RFU, MED14 / Fold change vs veh, MED14 / RFU, SNORA58 / Fold change vs veh, SNORA58 / RFU, C1orf63 / Fold change vs veh, C1orf63 / RFU, LRRFIP1 / Fold change vs veh, LRRFIP1 / RFU, NDUFAF7 / Fold change vs veh, NDUFAF7 / RFU, SLC12A2 / Fold change vs veh, SLC12A2 / RFU, IBTK / Fold change vs veh, IBTK / RFU, ESF1 / Fold change vs veh, ESF1 / Fold change vs veh, TMEM50B / RFU, TAOK1 / Fold change vs veh, TAOK1 / RFU, ACBD3 / Fold change vs veh, ACBD3 / RFU, TMA16 / Fold change vs veh, TMA16 / RFU, RWDD3 / Fold change vs veh, RWDD3 / RFU, BCAT1 / Fold change vs veh, BCAT1 / RFU, EDEM3 / Fold change vs veh, EDEM3 / RFU, TMEM33 / Fold change vs veh, TMEM33 / RFU, WDR75 / Fold change vs veh, WDR75 / RFU, AHCTF1 / Fold change vs veh, AHCTF1 / RFU, TFRC / Fold change vs veh, TFRC / RFU, ZDHHC17 / Fold change vs veh, ZDHHC17 / RFU, NOM1 / Fold change vs veh, NOM1 / RFU, ARL8B / Fold change vs veh, ARL8B / RFU, ZBTB11 / Fold change vs veh, ZBTB11 / RFU, TAMM41 / Fold change vs veh, TAMM41 / RFU, KIAA1704 /// LOC100996395 / Fold change vs veh, KIAA1704 /// LOC100996395 / RFU, ING1 / Fold change vs veh, ING1 / RFU, TRMT61B / Fold change vs veh, TRMT61B / RFU, FUBP3 / Fold change vs veh, FUBP3 / RFU, TP53 / Fold change vs veh, TP53 / RFU, TNKS2 / Fold change vs veh, TNKS2 / RFU, ZFP14 / Fold change vs veh, ZFP14 / RFU, ACTR2 / Fold change vs veh, ACTR2 / RFU, PPP3R1 / Fold change vs veh, PPP3R1 / RFU, PIK3R1 / Fold change vs veh, PIK3R1 / RFU, HNRNPA1 / Fold change vs veh, HNRNPA1 / RFU, RNF170 / Fold change vs veh, RNF170 / RFU, ZNF28 / Fold change vs veh, ZNF28 / RFU, RNGTT / Fold change vs veh, RNGTT / RFU, OGT / Fold change vs veh, OGT / RFU, BRD1 / Fold change vs veh, BRD1 / RFU, MARS / Fold change vs veh, MARS / RFU, ZNF655 / Fold change vs veh, ZNF655 / RFU, FAHD1 / Fold change vs veh, FAHD1 / RFU, BDP1 / Fold change vs veh, BDP1 / RFU, LRRCC1 / Fold change vs veh, LRRCC1 / RFU, ARID1A / Fold change vs veh, ARID1A / RFU, ZNF146 / Fold change vs veh, ZNF146 / RFU, ZNF330 / Fold change vs veh, ZNF330 / RFU, GPN3 / Fold change vs veh, GPN3 / RFU, C9orf123 / Fold change vs veh, C9orf123 / RFU, N4BP2L2 / Fold change vs veh, N4BP2L2 / RFU, ARFIP1 / Fold change vs veh, ARFIP1 / RFU, FAM179B / Fold change vs veh, FAM179B / RFU, BCL10 / Fold change vs veh, BCL10 / RFU, UHRF1BP1L / Fold change vs veh, UHRF1BP1L / RFU, BET1 / Fold change vs veh, BET1 / RFU, CNOT2 / Fold change vs veh, CNOT2 / RFU, ZNF268 / Fold change vs veh, ZNF268 / Fold change vs veh, ZNF507 / RFU, DGCR2 / Fold change vs veh, DGCR2 / RFU, WDSUB1 / Fold change vs veh, WDSUB1 / Fold change vs veh, HSP90B1 /// MIR3652 / RFU, ADSS / Fold change vs veh, ADSS / RFU, GK / Fold change vs veh, GK / RFU, ZNF148 / Fold change vs veh, ZNF148 / RFU, TAF9 / Fold change vs veh, TAF9 / RFU, SLC1A5 / Fold change vs veh, SLC1A5 / RFU, SLMO2 / Fold change vs veh, SLMO2 / RFU, ABCC4 / Fold change vs veh, ABCC4 / RFU, LOC101060439 /// RAP1B / Fold change vs veh, LOC101060439 /// RAP1B / RFU, RFX7 / Fold change vs veh, RFX7 / RFU, GTPBP10 / Fold change vs veh, GTPBP10 / RFU, CNEP1R1 / Fold change vs veh, CNEP1R1 / RFU, BIVM-ERCC5 /// ERCC5 / Fold change vs veh, BIVM-ERCC5 /// ERCC5 / RFU, ILF3 / Fold change vs veh, ILF3 / RFU 11762660_at / Fold change /veh 11762660_at / RFU VCAN (11757783_s_at) / Fold change /veh VCAN (11757783_s_at) / RFU DDX43 (11728927_at) / Fold change /veh DDX43 (11728927_at) / RFU KRT8 (11758188_x_at) / Fold change /veh KRT8 (11758188_x_at) / RFU NKD1 (11759106_at) / Fold change /veh NKD1 (11759106_at) / RFU SRD5A1 (11742802_a_at) / Fold change /veh SRD5A1 (11742802_a_at) / RFU TPSAB1 /// TPSB2 (11721975_s_at) / Fold change /veh TPSAB1 /// TPSB2 (11721975_s_at) / RFU GSTM3 (11746129_a_at) / Fold change /veh GSTM3 (11746129_a_at) / RFU IL23R (11737362_x_at) / Fold change /veh IL23R (11737362_x_at) / RFU TMEM51 (11727254_a_at) / Fold change /veh TMEM51 (11727254_a_at) / RFU PIWIL2 (11732686_x_at) / Fold change /veh PIWIL2 (11732686_x_at) / RFU ORM1 (11744905_x_at) / Fold change /veh ORM1 (11744905_x_at) / RFU CCDC152 (11743942_at) / Fold change /veh CCDC152 (11743942_at) / RFU ECM1 (11717891_a_at) / Fold change /veh ECM1 (11717891_a_at) / RFU IL23R (11748794_a_at) / Fold change /veh IL23R (11748794_a_at) / RFU TNFAIP8L3 (11732012_x_at) / Fold change /veh TNFAIP8L3 (11732012_x_at) / RFU MBOAT4 (11741988_at) / Fold change /veh MBOAT4 (11741988_at) / RFU 11764193_at / Fold change /veh 11764193_at / RFU TMEM53 (11763286_at) / Fold change /veh TMEM53 (11763286_at) / RFU MAGEB2 (11727129_at) / Fold change /veh MAGEB2 (11727129_at) / RFU TMEM200A (11744735_a_at) / Fold change /veh TMEM200A (11744735_a_at) / RFU CCDC152 (11751479_a_at) / Fold change /veh CCDC152 (11751479_a_at) / RFU FAM211A (11726209_a_at) / Fold change /veh FAM211A (11726209_a_at) / RFU RGS16 (11746705_a_at) / Fold change /veh RGS16 (11746705_a_at) / RFU VCAN (11755009_s_at) / Fold change /veh VCAN (11755009_s_at) / RFU RHOB (11743442_s_at) / Fold change /veh RHOB (11743442_s_at) / RFU RGS16 (11720943_a_at) / Fold change /veh RGS16 (11720943_a_at) / RFU RGS16 (11720944_at) / Fold change /veh RGS16 (11720944_at) / RFU, VPS4B / Fold change vs veh, VPS4B / RFU, CREB1 / Fold change vs veh, CREB1 / RFU, DNAJC13 / Fold change vs veh, DNAJC13 / RFU, GNAQ / Fold change vs veh, GNAQ / RFU, CDK5R1 / Fold change vs veh, CDK5R1 / RFU, ZRANB3 / Fold change vs veh, ZRANB3 / RFU, CUL4A / Fold change vs veh, CUL4A / RFU, CCNY / Fold change vs veh, CCNY / RFU, UFL1 / Fold change vs veh, UFL1 / RFU, COG3 / Fold change vs veh, COG3 / RFU, DIAPH2 / Fold change vs veh, DIAPH2 / RFU, SKA2 / Fold change vs veh, SKA2 / RFU, AFF3 / Fold change vs veh, AFF3 / RFU, LMF1 / Fold change vs veh, LMF1 / RFU, IPO11 / Fold change vs veh, IPO11 / RFU, DFFB / Fold change vs veh, DFFB / RFU, FOXP1 / Fold change vs veh, FOXP1 / RFU, CARD8 / Fold change vs veh, CARD8 / RFU, STRN3 / Fold change vs veh, STRN3 / RFU, ADK / Fold change vs veh, ADK / RFU, RASSF2 / Fold change vs veh, RASSF2 / RFU, WIPF1 / Fold change vs veh, WIPF1 / RFU, LARP1B / Fold change vs veh, LARP1B / RFU, RASA1 / Fold change vs veh, RASA1 / RFU, RB1 / Fold change vs veh, RB1 / RFU, PPFIA1 / Fold change vs veh, PPFIA1 / RFU, MAT2A / Fold change vs veh, MAT2A / RFU, CCT5 / Fold change vs veh, CCT5 / RFU, WDR92 / Fold change vs veh, WDR92 / RFU, CUX1 / Fold change vs veh, CUX1 / RFU, TTC7A / Fold change vs veh, TTC7A / RFU, TMEM135 / Fold change vs veh, TMEM135 / RFU, DEPTOR / Fold change vs veh, DEPTOR / RFU, CPM / Fold change vs veh, CPM / RFU, DNAJB6 / Fold change vs veh, DNAJB6 / RFU, CACNA2D3 / Fold change vs veh, CACNA2D3 / RFU, DTX4 / Fold change vs veh, DTX4 / RFU, TFCP2 / Fold change vs veh, TFCP2 / RFU, GMCL1 /// GMCL1P1 / Fold change vs veh, GMCL1 /// GMCL1P1 / RFU, AEBP2 / Fold change vs veh, AEBP2 / RFU, SNHG1 /// SNORD22 /// SNORD25 /// SNORD26 /// SNORD27 /// SNORD28 /// SNORD29 /// SNORD31 / Fold change vs veh, SNHG1 /// SNORD22 /// SNORD25 /// SNORD26 /// SNORD27 /// SNORD28 /// SNORD29 /// SNORD31 / Fold change (Aza/veh), C12orf56 (ProbeSet 11735607_a_at) / Fold change (ACY-1035/veh), C12orf56 (ProbeSet 11735607_a_at) / Fold change (Aza/veh), FGFR1OP (ProbeSet 11751329_s_at) / Fold change (ACY-1035/veh), FGFR1OP (ProbeSet 11751329_s_at) / Fold change (Aza/veh), VPS36 (ProbeSet 11739960_a_at) / Fold change (ACY-1035/veh), VPS36 (ProbeSet 11739960_a_at) / RFU SYPL1 (11715823_x_at) / Fold change /veh SYPL1 (11715823_x_at) / RFU IGFBP7 (11715501_s_at) / Fold change /veh IGFBP7 (11715501_s_at) / RFU REEP3 (11722064_at) / Fold change /veh REEP3 (11722064_at) / RFU IGLL1 (11728026_x_at) / Fold change /veh IGLL1 (11728026_x_at): dose or concentration left out as unconfirmed
# Settings: ProbeSet 11739696_s_at; LIST D
smiles,measurement,value
Nc1ccc(-c2cccs2)cc1NC(=O)c1ccc2c(c1)cc(C1CC1)n2CCN1CCOCC1 [ACY-1035],"Fold change vs veh, AFF3",1.00
